# Key:
# [1] = system: low-grade or slow-growing NHL; settings: 166 patients with advanced low-grade or slow-growing NHL, cited from earlier work
# PI 3-kinase = PI 3-kinase activity after dual ligation of CR3 in human neutrophils (ELISA); type: cell-based; settings: dual ligation plus inhibitor: LY294002 50 μM, Piceatannol 25 μM; one hour
# Procedure: Human neutrophils were stimulated with anti-M1/70 mAb (1 μg/ml) followed with goat-anti-rat Ig (5 μg/ml) in the presence or absence of the 25 kD active moiety of β-glucan (10 μg/ml) at 37° C. […] For measurement of PI 3-kinase activity, cells were stimulated for one hour and aliquots of cell lysates adjusted for protein concentration (500 μg of protein) were incubated for two hours at 4° C. with anti-PI 3-kinase p85 antibody, and immune complexes were adsorbed onto protein A-agarose for three hours. The complexes were then washed twice with lysis buffer and three times with 10 mM Tris-HCl, pH 7.4. To ensure that PI 3-kinase levels remained equivalent at the end of the immunoprecipitation, 10% from each treatment sample were collected during the last wash in a separate tube and analyzed by SDS-PAGE and immunoblotting with Abs to the p85 PI 3-kinase subunit. […] In brief, cell lysates were prepared and PI-3K was immunoprecipitated with antibody against the p85 subunit and incubated with PI(4,5)P2 (phosphatidylinositol-4,5-diphosphate). […]
# Additionally, human peripheral blood neutrophils were stimulated with M1/70 mAb followed by secondary Ab (with or without 25 kD β-glucan) or 25 kD β-glucan alone for one hour. […] The immunoprecipitates were analyzed on SDS-PAGE gel and blotted with anti-PI 3-kinase p85 mAb. The immunoprecipitates were also measured for PI 3-kinase activity by ELISA. […]
Compound,patients having complete remission [1] [%],patients whose tumors shrunk by at least one half ([1]; those who completed treatment) [%],"PI 3-kinase activity (level of PI(3,4,5)P3) (PI 3-kinase) [µM]"
rituximab: monoclonal antibody used to treat non-Hodgkin's lymphoma,6,48,
O=c1cc(N2CCOCC2)oc2c(-c3ccccc3)cccc12 [LY294002],,,9.05 ± 1.14
Oc1cc(O)cc(/C=C/c2ccc(O)c(O)c2)c1 [Piceatannol],,,17.1 ± 1.5

# Reference: patent publication US20090047288A1, “Glucan compositions and methods of enhancing CR3 dependent neutrophil-mediated cytotoxicity” (priority 2006, published 2009)
